{"source": "ChEMBL document CHEMBL5252605", "about": "“Design, synthesis, and biological testing of biphenylmethyloxazole inhibitors targeting HIV-1 reverse transcriptase” (Bioorg Med Chem Lett, 2023)", "key": {"[1]": {"target": "Human immunodeficiency virus type 1 reverse transcriptase (Human immunodeficiency virus 1, UniProt Q72547)", "assay": "Inhibition of recombinant wildtype HIV-1 reverse transcriptase using r(A)350 as template and d(T)16 as primer preincubated with compound for 1 hrs followed by template/primer addition and measured after 30 mins by picogreen based plate reader analysis"}, "[2]": {"test_system": "Human immunodeficiency virus 1", "assay": "Antiviral activity against wildtype HIV-1 IIIb infected in human MT2 cells assessed as protection of viral infected cells", "assay_type": "functional, organism-based", "conditions": "for EC50: Human immunodeficiency virus 1, IIIB"}, "[3]": {"test_system": "MT2", "assay": "Cytotoxicity against human MT2 cells assessed as inhibition of cell growth", "assay_type": "toxicity, cell-based"}, "[4]": {"target": "Human immunodeficiency virus type 1 reverse transcriptase (Human immunodeficiency virus 1) (UniProt Q72547)", "assay": "Time dependent inhibition of recombinant wildtype HIV-1 reverse transcriptase at 0.1 to 1000000 nM", "conditions": "dose 0.1-1e+06 nM, time 1-48 hrs"}}, "note": "The source made the active and inactive calls. The rule behind the calls is not given here."}
{"smiles": "N#Cc1ccc(-c2cc(F)c(Cc3cnc(Nc4ccc(C#N)c(Cl)c4)o3)c(F)c2)cc1", "values": [{"measurement": "IC50", "setting": "[1]", "result": "< 0.01", "unit": "µM"}, {"measurement": "EC50", "setting": "[2]", "result": 0.016, "unit": "µM"}, {"measurement": "CC50", "setting": "[3]", "result": 9.5, "unit": "µM"}]}
{"smiles": "N#Cc1ccc(Nc2ncc(Cc3c(F)cc(-c4ccc(C#N)cc4)cc3F)o2)cc1", "values": [{"measurement": "IC50", "setting": "[1]", "result": 0.011, "unit": "µM"}, {"measurement": "EC50", "setting": "[2]", "result": 0.03, "unit": "µM"}, {"measurement": "CC50", "setting": "[3]", "result": 9, "unit": "µM"}]}
{"smiles": "N#Cc1ccc(Nc2ncc(Cc3c(F)cccc3F)o2)cc1Cl", "values": [{"measurement": "EC50", "setting": "[2]", "result": 0.0062, "unit": "µM"}]}
{"smiles": "N#Cc1ccc(Nc2ncc(Cc3ccc(-c4ccccc4)cc3)o2)cc1", "values": [{"measurement": "IC50", "setting": "[1]", "result": "> 100", "unit": "µM"}, {"measurement": "Activity", "setting": "[2]", "result": "inactive"}, {"measurement": "CC50", "setting": "[3]", "result": 80, "unit": "µM"}]}
{"smiles": "N#Cc1ccc(Nc2ncc(Cc3c(F)cc(-c4ccccc4)cc3F)o2)cc1", "values": [{"measurement": "IC50", "setting": "[1]", "result": 0.02, "unit": "µM"}, {"measurement": "EC50", "setting": "[2]", "result": 0.17, "unit": "µM"}, {"measurement": "CC50", "setting": "[3]", "result": 59, "unit": "µM"}]}
{"smiles": "C=Cc1ccc(-c2cc(F)c(Cc3cnc(Nc4ccc(C#N)c(Cl)c4)o3)c(F)c2)cc1", "values": [{"measurement": "IC50", "setting": "[1]", "result": 0.017, "unit": "µM"}, {"measurement": "EC50", "setting": "[2]", "result": 0.019, "unit": "µM"}, {"measurement": "CC50", "setting": "[3]", "result": 30, "unit": "µM"}]}
{"smiles": "N#Cc1ccc(Nc2ncc(Cc3c(F)cc(-c4ccc(OS(=O)(=O)F)cc4)cc3F)o2)cc1", "values": [{"measurement": "IC50", "setting": "[1]", "result": "> 20", "unit": "µM"}, {"measurement": "Activity", "setting": "[2]", "result": "inactive"}, {"measurement": "CC50", "setting": "[3]", "result": 30, "unit": "µM"}, {"measurement": "TDI", "setting": "[4]", "result": "inactive"}]}
{"smiles": "N#Cc1ccc(Nc2ncc(Cc3c(F)cc(-c4ccc(O)cc4)cc3F)o2)cc1Cl", "values": [{"measurement": "IC50", "setting": "[1]", "result": 0.28, "unit": "µM"}, {"measurement": "EC50", "setting": "[2]", "result": 1.3, "unit": "µM"}, {"measurement": "CC50", "setting": "[3]", "result": 15, "unit": "µM"}]}
{"smiles": "N#Cc1ccc(Nc2ncc(Cc3c(F)cc(-c4ccc(OS(=O)(=O)F)cc4)cc3F)o2)cc1Cl", "values": [{"measurement": "IC50", "setting": "[1]", "result": 3, "unit": "µM"}, {"measurement": "EC50", "setting": "[2]", "result": 4.3, "unit": "µM"}, {"measurement": "CC50", "setting": "[3]", "result": 25, "unit": "µM"}, {"measurement": "TDI", "setting": "[4]", "result": "inactive"}]}
{"smiles": "N#Cc1ccc(Nc2ncc(Cc3c(F)cc(-c4ccc(O)cc4)cc3F)o2)cc1", "values": [{"measurement": "IC50", "setting": "[1]", "result": "> 1", "unit": "µM"}, {"measurement": "EC50", "setting": "[2]", "result": 5.5, "unit": "µM"}, {"measurement": "CC50", "setting": "[3]", "result": 15, "unit": "µM"}]}
{"smiles": "COc1ccc(-c2ccc(Cc3cnc(Nc4ccc(C#N)cc4)o3)cc2)cc1", "values": [{"measurement": "IC50", "setting": "[1]", "result": "> 10", "unit": "µM"}, {"measurement": "Activity", "setting": "[2]", "result": "inactive"}, {"measurement": "CC50", "setting": "[3]", "result": 27, "unit": "µM"}]}
{"smiles": "N#Cc1ccc(Nc2ncc(Cc3c(F)cc(-c4ccc(C5CO5)cc4)cc3F)o2)cc1Cl", "note": "(configuration not stated)", "values": [{"measurement": "IC50", "setting": "[1]", "result": 0.44, "unit": "µM"}, {"measurement": "EC50", "setting": "[2]", "result": 0.61, "unit": "µM"}, {"measurement": "CC50", "setting": "[3]", "result": 25, "unit": "µM"}, {"measurement": "TDI", "setting": "[4]", "result": "inactive"}]}
